Measured values as given in EP0434979B1, “Peptide derivatives useful as antagonists of bombesin and gastrin-releasing peptide” (MERRELL DOW PHARMACEUTICALS INC., priority 1989, dated 1991).
Where two headings read alike, the source gives them in different places. Where a SMILES comes first, the peptide text is derived from it. [ ]: non-standard residue; d: D form. The star is where a group is joined. Pheψ(CH2S)LeuNH2 = CC(C)C[C@H](SC[C@H](Cc1ccccc1)N*)C(N)=O; pGlu = O=C1CC[C@@H](C(=O)O)N1

Experiments:
[1] = biological target: T1, bombesin/GRP receptor (Mus musculus, UniProt P21729); assay: Competition at the receptor for iodinated GRP (binding to murine pancreatic membranes); design: species or system mice
T1 construct: Pancreata from mice were pooled and chopped at 350 µm with a tissue chopper; from tissue; host or cells: chopped mouse pancreas
Description: The pancreata from one or more mice were pooled, minced, and homogenized in 50 mM HEPES (pH 7.4) containing 120 mM NaCl and 5 mM KCl at 4°C and centrifuged at 37,500 X g for 15 minutes. The pellet was resuspended in 50 mM HEPES (pH 7.4) containing 10 mM EDTA and 300 mM KCl and incubated for 30 minutes at 4°C. The suspension was centrifuged as above and the pellet was washed two times in 50 mM HEPES (pH 7.4) containing protease inhibitors (10 µM phenylmethylsulfonyl fluoride, 1 µM thiorphan, 40 µg/ml bacitracin, 10mM iodoacetimide and 4 µg/ml leupeptin), and again centrifuged. The tissue was then resuspended in incubation buffer (1ml per 4 mg pancreas) and incubated for 15 minutes at room temperature, then 250 µl was added to each assay tube to commence the assay. […] The assay was allowed to proceed to equilibrium for 90 minutes at room temperature. After this time, the contents of each tube was rapidly filtered over Whatman GF/B filters presoaked in 0.1% polyethyleneimine and the filters were rapidly washed three times with ice-cold 50 mM HEPES (pH 7.4). Filter-bound radioactivity was quantitated in a gamma counter. […] Affinity and maximal binding were calculated with Ligand (Biosoft, Cambridge, UK) (Figure 1 and Figure 2).
Binding was assayed in triplicate using 0.1 […] and the indicated concentrations of peptide. The abscissa (x-axis) logarithmically indicates the concentration of agonists or antagonist of the GRP receptor.

[2] = biological target: T1, bombesin/GRP receptor; assay: Phosphatidylinositol (PI) turnover in chopped murine pancreas, alone (agonism) or before GRP (antagonism); type: cell-based, mice; design: key to PI Turnover Agonist / PI Turnover Antag.: "+" indicates activity; "-" indicates no activity; conditions: for PI Turnover Antag.: ability to block GRP-stimulated PI turnover, pretreatment with 1 uM potential antagonist; for PI Turnover Antag. / PI Turnover Agonist: murine pancreas; for PI Turnover Agonist: ability to stimulate PI turnover
Description: Pancreata from mice were pooled and chopped at 350 µm with a tissue chopper. The chopped tissue was washed twice with Krebs-Hepes buffer, then incubated for 30 minutes in 37°C Krebs-Hepes buffer with fresh buffer after 15 minutes. The tissue was then incubated in this buffer containing 100-200 µCi of ³H-inositol at 37°C for 1 hour. The tissue was then washed twice and incubated for another 30 minutes in Krebs-Hepes buffer (containing 10 mM Li⁺) at 37°C with fresh buffer change after 15 minutes. Portions of the tissue mass (approximately 10 mg per assay tube) were then placed in Li⁺ buffer with protease inhibitors, (40 µg/ml bacitracin,4 µg/ml leupeptin, 4 µg/ml chymostatin, 20 µg/ml thiorphan), 0.1% BSA, and then 0.1-1000 nM peptide was added in 25 µl in a final volume of 250 µl. […] After 60 minutes at room temperature, the phosphatidylinositol turnover was terminated by the addition of 940 µl chloroform:methanol (1:2), followed by 310 µl chloroform, followed by 310 µl water. Each tube was then vortexed for 5 seconds and then centrifuged at 2500 x g for 8 minutes to separate the phases. 900 µl of the top (aqueous) phase was then mixed with 2.1 ml water and loaded onto a 0.5 ml Biorad AG-1X8 (formate) ion exchange column. 50 µl of the bottom phase (chloroform) was withdrawn from each tube and placed in a counting vial, dried, and counted in scintillation fluid. The material on the columns was washed in order with: 1) 10 ml of water 2) 5 ml of 5 mM disodium tetraborate/60 mM sodium formate 3) 10 ml of 1 M ammonium formate in 0.1 M formic acid. The final (third) wash was collected and one ml was mixed with 10 ml of Bio-Safe scintillant and counted. The ratio of these counts (total inositol phosphates) to the corresponding organic phase counts was then calculated for each sample. The ratios in the presence of test compound and/or standards were then compared to the ratios for control tubes (i.e., no stimulating agonist). Dose-response lines were constructed and the abilities of test compounds to stimulate or to inhibit GRP induced phosphatidylinositol turnover were determined by graphical analysis or with the aid of a computer program and are illustrated in Figures 3 and 4.
The abscissa (x-axis) logarithmically indicates the concentration of peptide present. The ordinate (y-axis) indicates the observed PI turnover as a percentage of control. Values are mean ± standard error of triplicate determinations; where not shown, the errors are ≤the size of the data points.
Figure 4 illustrates the ability of (Phe₁₃[CH₂s]Leu₁₄)bombesin to antagonize GRP-induced PI turnover in murine pancreas (Example 2). The abscissa (x-axis) logarithmically indicates the concentration of peptide present. The ordinate (y-axis) indicates the observed PI turnover as a percentage of control. […] Data are the mean ± standard error of triplicate determinations; where not shown, the errors are ≤ the size of the data points.

[3] = Kd (nM), receptor affinity, competition for iodinated GRP binding, murine pancreatic membranes
[4] = LIGAND analysis, 0.1 nM iodinated GRP, triplicate, murine pancreatic membranes (Figure 2), read-out: Kd

T1 sequence (P21729 whole entry): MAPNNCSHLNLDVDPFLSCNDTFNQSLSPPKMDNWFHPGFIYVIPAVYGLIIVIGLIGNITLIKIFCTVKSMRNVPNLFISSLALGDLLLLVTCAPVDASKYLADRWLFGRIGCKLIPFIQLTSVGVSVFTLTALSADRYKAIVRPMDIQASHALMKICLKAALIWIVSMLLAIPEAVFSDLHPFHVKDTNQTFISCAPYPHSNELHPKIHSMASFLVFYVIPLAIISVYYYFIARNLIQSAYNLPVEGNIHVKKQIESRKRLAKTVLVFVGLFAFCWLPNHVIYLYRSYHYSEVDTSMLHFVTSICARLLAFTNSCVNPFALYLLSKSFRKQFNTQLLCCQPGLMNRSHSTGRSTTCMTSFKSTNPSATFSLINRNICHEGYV

SMILES: CC(C)C[C@@H](C(N)=O)[S+]([O-])C[C@H](Cc1ccccc1)NC(=O)[C@H](Cc1c[nH]cn1)NC(=O)CNC(=O)[C@@H](NC(=O)[C@H](C)NC(=O)[C@H](Cc1c[nH]c2ccccc12)NC(=O)[C@H](CCC(N)=O)NC(=O)[C@@H]1CCC(=O)N1)C(C)C (single isomer, unassigned) [pQ Q W A V G H FΨ[CH₂S(O)]^IIL#]
- Kd [1, 3]: 1 nM

SMILES: CC(C)C[C@@H](C(N)=O)[S+]([O-])C[C@H](Cc1ccccc1)NC(=O)[C@H](Cc1c[nH]cn1)NC(=O)CNC(=O)[C@@H](NC(=O)[C@H](C)NC(=O)[C@H](Cc1c[nH]c2ccccc12)NC(=O)[C@H](CCC(N)=O)NC(=O)[C@@H]1CCC(=O)N1)C(C)C (single isomer, unassigned) [pQ Q W A V G H FΨ[CH₂S(O)]^IL#]
- Kd [1, 3]: 2 nM

SMILES: CC(C)C[C@H](NC(=O)[C@H](Cc1ccccc1)NC(=O)[C@H](Cc1c[nH]cn1)NC(=O)CNC(=O)[C@@H](NC(=O)[C@H](C)NC(=O)[C@H](Cc1c[nH]c2ccccc12)NC(=O)[C@H](CCC(N)=O)NC(=O)[C@H](CC(N)=O)NC(=O)CNC(=O)[C@H](CC(C)C)NC(=O)[C@H](CCCNC(=N)N)NC(=O)[C@H](CCC(N)=O)NC(=O)[C@@H]1CCC(=O)N1)C(C)C)C(N)=O [(Phe₁₃Leu₁₄) bombesin, reference compound] ([pGlu]QRLGNQWAVGHFL-NH2)
- Kd [1, 4]: 0.1 nM

SMILES: CC(=O)N[C@H](Cc1ccccc1)C(=O)N[C@@H](CCC(N)=O)C(=O)N[C@@H](Cc1c[nH]c2ccccc12)C(=O)N[C@@H](C)C(=O)N[C@H](C(=O)N[C@H](C)C(=O)N[C@@H](Cc1c[nH]cn1)C(=O)N[C@H](CS[C@@H](CC(C)C)C(N)=O)Cc1ccccc1)C(C)C [Acf Q W A V a H FΨ[CH₂S]L#, Ac-D-Phe-Gln-Trp-Ala-Val-D-Ala-His-PheΨ[CH₂S]Leu-NH₂] (Ac-[dF]QWAV[dA]H-{Pheψ(CH2S)LeuNH2})
- PI Turnover Antag. [2]: +
- PI Turnover Agonist [2]: -

SMILES: CC(C)C[C@H](NC(=O)[C@H](CCCNC(=N)N)NC(=O)[C@H](CCC(N)=O)NC(=O)[C@@H]1CCC(=O)N1)C(=O)NCC(=O)N[C@@H](CC(N)=O)C(=O)N[C@@H](CCC(N)=O)C(=O)N[C@@H](Cc1c[nH]c2ccccc12)C(=O)N[C@@H](C)C(=O)N[C@H](C(=O)NCC(=O)N[C@@H](Cc1c[nH]cn1)C(=O)N[C@H](CS[C@@H](CC(C)C)C(N)=O)Cc1ccccc1)C(C)C [pQ Q R L G N Q W A V G H FΨ[CH₂S]L#] ([pGlu]QRLGNQWAVGH-{Pheψ(CH2S)LeuNH2})
- stimulation of phosphatidylinositol (PI) turnover (agonist activity) ([2]; PI turnover as percentage of control, dose-response, triplicate (Figure 3)): no agonist activity
- PI Turnover Antag. [2]: +
- PI Turnover Agonist [2]: -
- antagonism of GRP-induced PI turnover ([2]; preincubation for 30 minutes with 1000 nM peptide, then 1-1000 nM GRP, murine pancreas (Figure 4)): reduces the stimulation of PI turnover
- Kd [1, 4]: 3 nM
- Kd ([1]; receptor affinity, competition for iodinated GRP binding, murine pancreatic membranes, read-out: Kd): 3 nM

SMILES: CCCC[C@H](SC[C@H](Cc1ccccc1)NC(=O)[C@H](Cc1c[nH]cn1)NC(=O)CNC(=O)[C@@H](NC(=O)[C@H](C)NC(=O)[C@H](Cc1c[nH]c2ccccc12)NC(=O)[C@H](CCC(N)=O)NC(=O)[C@@H]1CCC(=O)N1)C(C)C)C(N)=O [pQ Q W A V G H FΨ [CH₂S]Z#, pGlu-Gln-Trp-Ala-Val-Gly- His-Phe Ψ(CH₂S]Nle-NH₂]
- Kd [1, 3]: 4 nM

SMILES: CC(C)C[C@H](SC[C@H](Cc1ccccc1)NC(=O)[C@H](Cc1c[nH]cn1)NC(=O)CNC(=O)[C@@H](NC(=O)[C@H](C)NC(=O)[C@H](Cc1c[nH]c2ccccc12)NC(=O)[C@H](CCC(N)=O)NC(=O)[C@@H]1CCC(=O)N1)C(C)C)C(N)=O [pQ Q W A V G H FΨCH₂S]L#]
- Kd [1, 3]: 3 nM
